Data: patent EP0752477A2, “Expression vectors that produce steroid receptors, steroid receptor chimera, screening assays for steroid receptors and clinical assays using synthesized receptors and receptor vectors” (BAYLOR COLLEGE OF MEDICINE, priority 1990, dated 1991)

How the values were obtained:
human estrogen receptor = assay: Estrogen responsive reporter assay in yeast, wild type estrogen receptor; type: cell-based; settings: ER
Source text: (§1) The mechanism by which steroid receptors enhance transcription is unclear, however, there is a clear correlation between the ability of the receptor to activate transcription and the presence of an acidic activation region in the protein. […] As illustrated in Fig. 9 this was accomplished for the human estrogen receptor by digestion of the yeast expression vector for estrogen, YEpE2 with Notl, filling in the ends with T4 polymerase and religating in the presence of the filled in Rsal - Sall fragment of the VP16 protein. After the receptor is inserted in the proper orientation it produces a chimeric receptor which includes within its reading frame a VP16 activating domain.
(§2) A comparison of the wild type estrogen receptor and the modified receptor was made in yeast using the estrogen responsive reporters.

YRpEG3 reporter = assay: Activity of the YRpEG3 reporter alone (no receptor); type: cell-based, Saccharomyces cerevisiae
Experimental: The transcriptional activity of the receptor was assayed under similar conditions to Example 15 except that the cells were grown in glucose (Fig. 1B). In the presence of glucose, the transcriptional activity of GAL4 is completely repressed because the GAL4 protein is incapable of binding to its response element. Under these conditions estrogen receptor activation of the GAL4-ERE can be monitored without interference. […] At all concentrations of receptor the activation of transcription was entirely hormone dependent.

GAL4 = assay: Activation of GAL4/ERE binding site chimera reporters by galactose in BJ3505; type: cell-based, Saccharomyces cerevisiae; settings: grown in galactose
Source text: It is known that the estrogen receptor binds to and activates gene transcription through a 13 bp palindromic sequence (ERE). Placing ERE upstream of the promoter in a CYC-l-β-gal fusion vector and transforming into Saccharomyces cerevisiae results in a reporter which responded to estrogen in a receptor-dependent manner. To monitor the binding of the estrogen receptor to the ERE sequence in vivo, an interference assay was developed. An oligonucleotide containing a GAL4 (17 mer) recognition sequence and an ERE was constructed such that the two sites would overlap by 1 base. In this way only ER or GAL4 but not both molecules could occupy the same site. This sequence was cloned as a single, double, or triple copy distal to the promoter in a yeast iso-l-cytochrome C reporter (PC3).
These plasmids were introduced into yeast and assayed for transcriptional activity in the presence of glucose and galactose. The results are shown in Table I and reveal that galactose induced transcription of the reporter gene, and activity increased dramatically as the number of GAL sites increased. When grown in glucose, transcriptional activity was completely repressed.

[1] = target: T1, chicken progesterone receptor (Gallus gallus, UniProt P07812); assay: β-Galactosidase transcription assay in yeast with expression plasmid and reporter YRpP1; type: cell-based
T1 construct: ubiquitin (N, cleaved yes); expressed in transfected cells
T1 sequence (P07812 1-786): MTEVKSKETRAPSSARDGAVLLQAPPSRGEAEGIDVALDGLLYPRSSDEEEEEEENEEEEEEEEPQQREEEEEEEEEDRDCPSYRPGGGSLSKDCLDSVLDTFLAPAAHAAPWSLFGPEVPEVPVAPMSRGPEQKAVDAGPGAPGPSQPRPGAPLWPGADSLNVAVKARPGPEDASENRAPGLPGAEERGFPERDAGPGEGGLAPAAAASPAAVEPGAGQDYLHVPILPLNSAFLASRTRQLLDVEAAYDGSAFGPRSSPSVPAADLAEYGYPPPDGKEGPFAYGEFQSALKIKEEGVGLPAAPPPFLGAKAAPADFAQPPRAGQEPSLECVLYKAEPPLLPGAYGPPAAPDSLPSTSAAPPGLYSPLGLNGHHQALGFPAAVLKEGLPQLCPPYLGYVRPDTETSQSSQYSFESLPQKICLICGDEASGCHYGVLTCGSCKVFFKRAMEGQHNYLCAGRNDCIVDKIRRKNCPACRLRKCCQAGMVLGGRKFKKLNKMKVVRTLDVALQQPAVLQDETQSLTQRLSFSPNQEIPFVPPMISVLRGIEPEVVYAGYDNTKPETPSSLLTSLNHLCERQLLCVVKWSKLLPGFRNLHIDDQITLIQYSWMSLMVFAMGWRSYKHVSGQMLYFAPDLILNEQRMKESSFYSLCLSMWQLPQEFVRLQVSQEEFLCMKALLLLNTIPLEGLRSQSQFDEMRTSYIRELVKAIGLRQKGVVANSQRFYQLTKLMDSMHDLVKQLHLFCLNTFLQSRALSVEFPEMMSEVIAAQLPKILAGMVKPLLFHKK
Experimental: A reporter YRpP1 containing the progesterone responsive sequence and the β-Galactosidase gene was used to quantitate the transcriptional activity of the chicken progesterone receptor. Yeast containing both the expression and the reporter plasmids was grown overnight in minimal media supplemented with 2% glucose. […] Four sets of tubes were inoculated (a) no additions, (b) +100µM CuSO4, (c) +0.1µM progesterone, and (d) +100µM CuSO4, 0.1µM progesterone. When the cells reached mid-log phase they were harvested by centrifugation. The cells were lysed using glass beads and the cytosol was clarified by centrifugation. Aliquots (1-100µg) of protein were assayed for β-Galactosidase activity according to the method of Miller and expressed as units/mg protein.

Super ER = assay: Estrogen responsive reporter assay in yeast, modified (super) estrogen receptor with VP16 activating domain; type: cell-based, human; settings: +CuSO4, no E2
Source text: as §1, §2

Compound: C[C@]12CC[C@@H]3c4ccc(O)cc4CC[C@H]3[C@@H]1CC[C@@H]2O [E2, estradiol]
- activity of estrogen responsive reporter (human estrogen receptor; +CuSO4+E2): 4344 Miller units per milligram of protein
- activity of estrogen responsive reporter (human estrogen receptor; +E2): 5760 Miller units per milligram of protein
- direct effects on the activity of the YRpEG3 reporter alone (YRpEG3 reporter): no direct effects

Compound: O=C[C@H](O)[C@@H](O)[C@@H](O)[C@H](O)CO [Galactose, galactose]
- TRANSCRIPTIONAL ACTIVITY (GAL4; reporter YRpEG1, 1 binding site): 860
- TRANSCRIPTIONAL ACTIVITY (GAL4; reporter YRpEG2, 2 binding sites): 2,350
- TRANSCRIPTIONAL ACTIVITY (GAL4; reporter YRpEG3, 3 binding sites): 16,500

Compound: O=S(=O)([O-])[O-].[Cu+2] [CuSO4]
- β-Galactosidase activity ([1]; +100µM CuSO4, no progesterone): <500 Miller units
- EC50 ([1]; CUP1 promoter driven receptor expression, other data, read-out: concentration sufficient to activate half maximally this transcription unit): 1 µM
- activity of estrogen responsive reporter (human estrogen receptor; +CuSO4, no E2): 473 Miller units per milligram of protein
- activity of estrogen responsive reporter (Super ER): 4133 Miller units per milligram of protein
- direct effects on the activity of the YRpEG3 reporter alone (YRpEG3 reporter): no direct effects

Compound: COc1ccc2c(c1)CCC(c1ccccc1)=C2c1ccc(OCCN2CCCC2)cc1 [nafoxidine]
- direct effects on the activity of the YRpEG3 reporter alone (YRpEG3 reporter): no direct effects

Compound: CC(=O)[C@H]1CC[C@H]2[C@@H]3CCC4=CC(=O)CC[C@]4(C)[C@H]3CC[C@]12C [Prog., progesterone, reference compound]
- β-Galactosidase activity ([1]; +0.1µM progesterone, no CuSO4): <500 Miller units
- β-Galactosidase activity ([1]; +100µM CuSO4, 0.1µM progesterone): 50,000 Miller units
